The assay has as its target T1, human plasma protein factor Xa (Homo sapiens, UniProt P00742).
T1 construct: measure proteolytic activity of the enzyme (factor Xa); purchased Haematologic Technologies (Essex Junction, Vt.); host or cells: human plasma
Briefly: Factor Xa IC50 determination (cleavage of chromogenic substrate S-2765). It is filed as biochemical. Conditions: fXa 1 nM, S-2765 100 μM, Tris buffered saline pH 7.4, room temperature. A digest of the protocol: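 Human plasma factor Xa (1 nM) preincubated 5 min at room temperature with inhibitor (0.01 nM–10 μM final) in Tris-buffered saline pH 7.4 with CaCl2, BSA and 5% DMSO. S-2765 added at 100 μM; pNA release at 405 nm over 2 min; initial velocities fitted to four-parameter equation for IC50, duplicates.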

Molecules are shown by their SMILES. pIC50: −log10 of the molar value.

T1 sequence (P00742 235-488 limits assumed): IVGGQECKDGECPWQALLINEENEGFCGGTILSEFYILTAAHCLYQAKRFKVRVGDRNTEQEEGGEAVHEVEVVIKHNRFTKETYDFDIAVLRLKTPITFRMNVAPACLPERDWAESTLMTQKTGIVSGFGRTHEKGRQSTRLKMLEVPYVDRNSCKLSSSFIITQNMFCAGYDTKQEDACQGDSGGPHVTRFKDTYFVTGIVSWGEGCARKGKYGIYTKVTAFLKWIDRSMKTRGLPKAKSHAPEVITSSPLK
T1 sequence (P00742 41-179 partner limits assumed): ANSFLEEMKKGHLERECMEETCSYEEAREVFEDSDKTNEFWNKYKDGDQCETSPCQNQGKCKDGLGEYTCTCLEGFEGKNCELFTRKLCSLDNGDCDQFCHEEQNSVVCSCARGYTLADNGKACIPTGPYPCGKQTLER

On to `CNC(=N)c1ccc(NC(=O)C(NC(=O)Nc2ccc(Cl)cc2)c2ccccc2)c(F)c1` (stereo not drawn) [Example 37, N-(4-methylaminoimino-2-fluorophenyl)-2-phenyl-2-(4-chlorophenylamino-carbonylamino)-acetamide], for which the pIC50 is ≥ 7.00.

For `CN1CCN=C1c1ccc(NC(=O)[C@H](NC(=O)Nc2ccc(Cl)cc2)c2ccccc2)cc1` [Example 32, (2R) N-[4-(1-methyl-4,5-dihydro-1H-imidazol-2-yl)phenyl]-2-phenyl-2-(4-chlorophenylaminocarbonylamino)-acetamide], the pIC50 was ≥ 7.00.

On to `COc1ccccc1C(NC(=O)Nc1ccc(Cl)cc1)C(=O)Nc1ccc(-c2cccc[n+]2[O-])cc1` (stereo not drawn) [Example 107, N-[4-(N-oxo-pyridin-2-yl)phenyl]-2-(2-methoxyphenyl)-2-(4-chlorophenylaminocarbonylamino)-acetamide], for which the pIC50 is ≥ 7.00.

One may read the pIC50 as −log10 of the IC50, conventionally taken in molar units. Higher therefore signals a low IC50.

(Values after patent publication US7678913B2, “Ureas as factor Xa inhibitors” (Portola Pharmaceuticals, Inc., priority 2004, dated 2010).)
